These results are taken from ChEMBL document CHEMBL4373714, “Absolute Configuration and Biological Activities of Meroterpenoids from an Endophytic Fungus of Lycium barbarum” (J Nat Prod, 2019).

Test [1] deals with MDA-MB-231. The test is described as follows: Antiproliferative activity against human MDA-MB-231 cells assessed as reduction in cell viability at 10 uM after 24 hrs by CCK8 assay relative to control. The format is functional. The following applies: MDA-MB-231, 24 h. (In general: Tetrazolium dyes change colour on reduction, which living cells bring about.)
The subject of test [2] is NCI-H226. The test is described as follows: Antiproliferative activity against human NCI-H226 cells assessed as reduction in cell viability at 10 uM after 24 hrs by CCK8 assay relative to control. The following applies: NCI-H226, 24 h. The format is functional.
Test [3] has as its system MDA-MB-231. The test is described as follows: Antiproliferative activity against human MDA-MB-231 cells assessed as reduction in cell viability after 24 hrs by CCK8 assay. The format is functional, cell-based. The settings on record: MDA-MB-231, 24 h.
In test [4] the test system is NCI-H226. The test is described as follows: Antiproliferative activity against human NCI-H226 cells assessed as reduction in cell viability after 24 hrs by CCK8 assay. The format is functional, cell-based. The following applies: NCI-H226, 24 h.
A further test relates to Pseudomonas viridiflava. The test is described as follows: Antibacterial activity against Pseudomonas viridiflava assessed as inhibition of bacterial growth after 24 hrs by microdilution method. The format is functional.
The next test has as its system Clostridium perfringens. The test is described as follows: Antibacterial activity against Clostridium perfringens assessed as inhibition of bacterial growth after 24 hrs by microdilution method. The class given is functional.
For a further test, the system named is Bacillus subtilis. The test is described as follows: Antibacterial activity against Bacillus subtilis assessed as inhibition of bacterial growth after 24 hrs by microdilution method. The format is functional. In general terms: Broth dilution looks for growth in wells or tubes with falling amounts of substance.
A further test has as its system Escherichia coli. The test is described as follows: Antibacterial activity against Escherichia coli assessed as inhibition of bacterial growth after 24 hrs by microdilution method. The class given is functional.
For another test, the system named is Staphylococcus aureus. The test is described as follows: Antibacterial activity against Staphylococcus aureus assessed as inhibition of bacterial growth after 24 hrs by microdilution method. The format is functional.

The structures appear in SMILES notation. In brackets after ≈: the same amount, converted by molar mass. Counter-ions that a name gives are not always drawn. Where only a bound is given, the exact number is not on record here.

What is called inhibition is the relative decrease from the control value, in per cent. As to `CC[C@H](C)C(=O)[C@@H](C)C1=C(OC)C(=O)C2=C(O[C@]3(C)CC[C@H]4O[C@@H](C(C)(C)O)CC[C@]4(C)[C@H]3C2)C1=O`, the inhibition at 10 µM in the test on MDA-MB-231 [1] and with NCI-H226 [2] was below 50% in each case.

Usually IC50 stands for the concentration needed to halve the response being measured. Consider `CC[C@H](C)C(=O)[C@@H](C)C1=C(OC)C(=O)C2=C(O[C@]3(C)CC[C@H]4O[C@@H](C(C)(C)O)CC[C@]4(C)[C@H]3[C@@H]2O)C1=O`, for which the IC50 is 9.5 µM in the test with MDA-MB-231 [3] and above 10 µM in the test with NCI-H226 [4].

For the molecule `C/C=C(\C)C(=O)[C@@H](C)c1cc(O)c2c(c1O)O[C@]1(C)CC[C@H]3O[C@@H](C(C)(C)O)CC[C@]3(C)[C@H]1[C@@H]2O`, the values for the IC50 in the test with MDA-MB-231 [3] and in the test with NCI-H226 [4] were 6.7 µM and 5.5 µM, respectively.

Turning to `CC[C@H](C)C(=O)[C@@H](C)c1cc(O)c2c(c1O)O[C@]1(C)CC[C@H]3O[C@@H](C(C)(C)O)CC[C@]3(C)[C@H]1[C@@H]2O`, the inhibition at 10 µM in the test on MDA-MB-231 [1] and with NCI-H226 [2] was below 50% throughout.

As for `CC[C@@H](C)C(=O)[C@@H](C)c1cc(O)c2c(c1O)O[C@]1(C)CC[C@H]3O[C@@H](C(C)(C)O)CC[C@]3(C)[C@H]1C2=O`, the inhibition at 10 µM in the test on MDA-MB-231 [1] and in the test on NCI-H226 [2] was below 50% each time.

Take `C/C=C(\C)[C@@H](OC(C)=O)[C@@H](C)C1=CC(=O)C2=C(O[C@]3(C)CC[C@H]4O[C@@H](C(C)(C)O)CC[C@]4(C)C3=C2)C1=O`: the IC50 is 5.6 µM with MDA-MB-231 [3] and above 10 µM in the test with NCI-H226 [4].

Regarding `CCC(C)C(=O)c1coc2c3c(c(O)cc12)[C@@H](O)[C@@H]1[C@@]2(C)CC[C@H](C(C)(C)O)O[C@@H]2CC[C@@]1(C)O3` (stereo not given in full), the inhibition at 10 µM in the test with MDA-MB-231 [1] and in the test on NCI-H226 [2] was below 50% throughout.

`CC[C@@H](C)[C@@H](OC(C)=O)[C@@H](C)c1cc(O)c2c(c1O)O[C@]1(C)CC[C@H]3O[C@@H](C(C)(C)O)CC[C@]3(C)[C@H]1C2=O`: the inhibition at 10 µM in the test with MDA-MB-231 [1] and in the test with NCI-H226 [2] was below 50% each time.

Regarding `C/C=C(\C)C(=O)[C@@H](C)C1=C(OC)C(=O)C2=C(O[C@]3(C)CC[C@H]4O[C@@H](C(C)(C)O)CC[C@]4(C)[C@H]3[C@@H]2O)C1=O`, the concentration for half-maximal inhibition (IC50) with MDA-MB-231 [3] was 7.5 µM; in the test on NCI-H226 [4], above 10 µM.

`CC[C@H](C)[C@@H](OC(C)=O)[C@@H](C)C1=C(N)C(=O)C2=C(O[C@]3(C)CC[C@H]4O[C@@H](C(C)(C)O)CC[C@]4(C)[C@H]3[C@@H]2O)C1=O`: the inhibition at 10 µM with MDA-MB-231 [1] and with NCI-H226 [2] was below 50% throughout.

In the case of `C/C=C(\C)C(=O)[C@@H](C)C1=CC(=O)C2=C(O[C@]3(C)CC[C@H]4O[C@@H](C(C)(C)O)CC[C@]4(C)[C@H]3[C@@H]2O)C1=O`, the IC50 in the test on MDA-MB-231 [3] was 8.5 µM; in the test with NCI-H226 [4] it was above 10 µM.

`CC[C@H](C)[C@@H](OC(C)=O)[C@@H](C)C1=CC(=O)C2=C(O[C@]3(C)CC[C@H]4O[C@@H](C(C)(C)O)CC[C@]4(C)[C@H]3[C@@H]2O)C1=O` [COCHLIOQUINONE A]: the inhibition at 10 µM with MDA-MB-231 [1] and in the test on NCI-H226 [2] was below 50% throughout.

As usually defined, the MIC is the smallest concentration in the dilution series that meets the test's criterion for growth inhibition. As for `CC[C@H](C)C(=O)[C@@H](C)C1=CC(=O)C2=C(O[C@]3(C)CC[C@H]4O[C@@H](C(C)(C)O)CC[C@]4(C)[C@H]3C2)C1=O` [COCHLIOQUINONE B], the inhibition at 10 µM with MDA-MB-231 [1] and in the test with NCI-H226 [2] was below 50% each time. The minimum inhibitory concentration (MIC) with Pseudomonas viridiflava, with Clostridium perfringens and in the test on Bacillus subtilis was 26 µM (≈ 12.3 µg/mL) in each case.

For `CC[C@H](C)C(=O)[C@@H](C)C1=CC(=O)C2=C(O[C@]3(C)CC[C@H]4O[C@@H](C(C)(C)O)CC[C@]4(C)[C@H]3[C@@H]2O)C1=O` [COCHLIOQUINONE C], the inhibition at 10 µM with MDA-MB-231 [1] and with NCI-H226 [2] was below 50% each time. Also, the minimal inhibitory concentration (MIC) in the test on Pseudomonas viridiflava, in the test with Clostridium perfringens and in the test on Bacillus subtilis was 26 µM (≈ 12.7 µg/mL) in each case.

On to `C/C=C(\C)C(=O)[C@@H](C)C1=CC(=O)C2=C(O[C@]3(C)CC[C@H]4O[C@@H](C(C)(C)O)CC[C@]4(C)[C@H]3C2)C1=O` [COCHLIOQUINONE D], for which the IC50 amounted to 7.1 µM in the test on MDA-MB-231 [3] and 6.9 µM in the test with NCI-H226 [4].

Regarding `COc1cccc2c1C(=O)c1c(O)c3c(c(O)c1C2=O)C[C@@](O)(C(=O)CO)C[C@@H]3O[C@H]1C[C@H](N)[C@H](O)[C@H](C)O1` [DOXORUBICIN HYDROCHLORIDE], the 50% inhibitory concentration (IC50) with MDA-MB-231 [3] and with NCI-H226 [4] was 0.3 µM throughout.

For `CC[C@H](C)[C@@H](OC(C)=O)[C@@H](C)c1cc(O)c2c(c1O)O[C@]1(C)CC[C@H]3O[C@@H](C(C)(C)O)CC[C@]3(C)[C@H]1C2=O` [ISOCOCHLIOQUINONE A], the inhibition at 10 µM in the test with MDA-MB-231 [1] and with NCI-H226 [2] was below 50% each time.

Take `CC[C@H](C)C(=O)[C@@H](C)c1cc(O)c2c(c1O)O[C@]1(C)CC[C@H]3O[C@@H](C(C)(C)O)CC[C@]3(C)[C@H]1C2=O` [ISOCOCHLIOQUINONE C]: the inhibition at 10 µM in the test on MDA-MB-231 [1] and in the test on NCI-H226 [2] was below 50% in each case. Further, the minimum inhibitory concentration (MIC) in the test on Pseudomonas viridiflava, in the test with Clostridium perfringens and in the test with Bacillus subtilis was 26 µM (≈ 12.7 µg/mL) each time.

Consider `CN(C)[C@@H]1C(O)=C(C(N)=O)C(=O)[C@@]2(O)C(O)=C3C(=O)c4c(O)cccc4[C@@](C)(O)[C@H]3C[C@@H]12` [TETRACYCLINE], for which the MIC with Escherichia coli, with Staphylococcus aureus, in the test with Pseudomonas viridiflava, in the test with Clostridium perfringens and in the test on Bacillus subtilis was 3.5 µM (≈ 1.56 µg/mL) in each case.
